Columns and labels:
PC12 cells = assay: EGR-SEAP/PC12 screening assay for neuronal activity; assay type: cell-based, rat; details: 50 ng/ul; PC12 EGR-SEAP; typically seen
Text: Particularly, the following protocol is used to assess neuronal activity in PC12 cell lines. PC12 cells (rat phenochromocytoma cells) are known to proliferate and/or differentiate by activation with a number of mitogens, such as TPA (tetradecanoyl phorbol acetate), NGF (nerve growth factor), and EGF (epidermal growth factor). The EGR1 gene expression is activated during this treatment. Thus, by stably transfecting PC12 cells with a construct containing an EGR promoter linked to SEAP reporter, activation of PC12 cells by CLC can be assessed.
The EGR/SEAP reporter construct can be assembled by the following protocol. The EGR-1 promoter sequence (−633 to +1; Sakamoto, K., et al., Oncogene 6:867-871 (1991)) can be PCR amplified from human genomic DNA using the following primers. The 5′ primer has the sequence: 5′-GCGCTCGAGGGATGACAGCGATAGAACCCCGG-3′ (SEQ ID NO:19) and the 3′ primer has the sequence: 5′-GCGAAGCTTCGCGACTCCCCGGATCCGCCTC-3′ (SEQ ID NO:20).
Using the GAS:SEAP/Neo vector produced in Example 6, EGR1 amplified product can then be inserted into this vector. Linearize the GAS:SEAP/Neo vector using restriction enzymes Xho I and Hind III, removing the GAS/SV40 stuffer. Restrict the EGR1 amplified product with these same enzymes. Ligate the vector and the EGR1 promoter. […]

[1] = test system: NF-κB promoter element in Jurkat T-cells; assay: NF-κB/SEAP screening assay in Jurkat T-cells; assay type: cell-based; details: 0.1, 1, 10 ng, typically observed
Protocol: Due to its central role and ability to respond to a range of stimuli, reporter constructs utilizing the NF-κB promoter element are used to screen the supernatants produced in Example 6. Activators or inhibitors of NF-κB would be useful in treating diseases. For example, inhibitors of NF-κB could be used to treat those diseases related to the acute or chronic activation of NF-κB, such as rheumatoid arthritis and others.
PCR amplification is performed using the SV40 promoter template present in the pb-gal:promoter plasmid obtained from Clontech. The resulting PCR fragment is digested with Xho I and Hind III and subcloned into BLSK2-(Stratagene). Sequencing with the T7 and T3 primers confirms the insert contains the following sequence: 5′-CTC
Next, replace the SV40 minimal promoter element present in the pSEAP2-promoter plasmid (Clontech) with this NF-κB/SV40 fragment using Xho I and Hind III.
Particularly, the NF-κB/SV40/SEAP cassette was inserted into pGFP-1 (Clontech), replacing the GFP gene, after restricting pGFP- 1 with Sal I and Not I.
Once NF-κB/SV40/SEAP/Neo vector is created, stable Jurkat T-cells are created and maintained according to the protocol described in Example 9. Similarly, the method for assaying supernatants with these stable Jurkat T-cells is also described in Example 9. […]

Q: Which “induction of SEAP in positive control wells” value (PC12 cells) does the source give for “NGF: growth factor known to activate PC12 cells through EGR” here?
A: Its value is “Over fifty-fold induction”.

Q: How did the “activation in positive control wells” value [1] turn out when TNF alpha was run?
A: Its value is 5-10 fold.
